Data: patent publication US8518882B2, “Methods and compositions for ameliorating or inhibiting decline in memory or intelligence or improving same” (priority 1998, dated 2013)

Assays:
[1] = tested on: PC12 cells; assay: Uptake of uridine into PC12 cells; format: cell-based
[2] = tested on: IP signaling; assay: PI turnover / inositol phosphate formation in NGF-differentiated PC12 cells; format: cell-based; details: for Formation of IP: NGF-differentiated PC12 cells, 1 hour, UTP 100 μM (p<0.05), uridine 50 μM (p<0.01)
Method: Analysis of PI turnover was performed as described by (Nitsch R M et al, J Neurochem 69: 704-12, 1997). Briefly, cells were labeled metabolically for 36 h with 1.25 microCurie (μCi)/dish of myo-[2-^3H]inositol (17.0 Curie/mmol; Amersham Biosciences) in serum-free MEM, washed twice with Hank's balanced salt solution (HBSS), and treated for 15 min with 10 mM lithium chloride in HBSS. Drugs were added in the presence of 10 mM lithium for 60 min at 37° C. Cells were lysed with ice-cold methanol, and lipids were removed by extraction with chloroform/methanol/water (2:2:1 by volume). Labeled water-soluble inositol phosphates were separated from free [^3H]inositol by ion-exchange chromatography, using AG 1-X8 columns (Bio-Rad), and 1M ammonium formate and 0.1M formic acid as eluent. Radioactivity was quantified by liquid scintillation spectrometry.

[3] = tested on: PC12 cells; assay: Intracellular UTP and CTP levels in PC12 cells by HPLC; format: cell-based; details: 2 days with NGF; uridine 50 μM, UTP 100 μM, cytidine 50 μM
Method: (§1) Brain tissue or cells was dissolved in methanol/chloroform (1:2 vol/vol), centrifuged, and the aqueous phase was dried under vacuum, resuspended in 100-200 μL water and separated by HPLC on an ion-exchange column (Alltech Hypersil APS-2, 5 μM, 250×4.6 mm). CDP-choline was eluted with a linear gradient of NaH2PO4 buffers A (1.75 mM NaH2PO4, pH 2.9) and B (500 mM, pH 4.5), which allowed resolution of CDP-choline from closely co-eluting substances such as UMP over 40 min. The retention time for CDP-choline was 9.5 min. Individual nucleotide peaks were detected by UV absorption at […], and were identified by comparison with the positions of authentic standards, as well as by the addition of nucleotide standards to selected samples.
Levels of intracellular UTP and CTP were analyzed by HPLC as described for Example 5, except that 5 mM NaH2PO4, pH 2.65 was used as buffer A.

[4] = tested on: PC12 cells; assay: NGF-induced neurite outgrowth, branching and length in PC12 cells; format: cell-based
Method: (§2) PC12 cells were maintained in Minimal Essential Medium (MEM; Invitrogen, Carlsbad, Calif.) supplemented with 10% fetal bovine serum (FBS) at 37° C. Experimental incubations were for 2 or 4 days in medium containing 50 ng/ml mouse 2.5 S (2.5 subunit) NGF and 1% FBS, with or without test compounds. NGF and FBS were obtained from Invitrogen.
PC12 cells were sparsely plated on collagen-coated 60 mm culture dishes in MEM containing 1% fetal bovine serum. […] All treatments were performed 24 h after plating. At the end of the treatment period, images were obtained with a phase-contrast Zeiss Axioplan 2 microscope, using OpenLab software. Six digital images were captured for each dish, for a total of 18 to 24 images per treatment group Approximately 300 cells were quantified for each treatment group for each experiment. Experiments were performed in triplicate. Quantification of neurites, including neurite branching and neurite length, was performed by one more researchers blinded to experimental groups Neurite length was measured using the public domain NIH software “Image J.” Processes longer than the diameter of the cell body were counted as neurites. Only process-bearing cells were analyzed.

[5] = Conversion of uridine to cytidine in plasma and brain of gerbils; format: in vivo; details: 250 mg/kg uridine orally, 60 min
[6] = tested on: PC12 cells; assay: Intracellular CDP-choline levels in PC12 cells; format: cell-based; details: after 50 minutes
Method: as §1, §2

[7] = tested on: P2Y2, P2Y4 and P2Y6 receptors; assay: P2Y receptor expression in NGF-differentiated PC12 cells; format: cell-based; details: compared with cells exposed to NGF alone
Method: Western blots utilized rabbit anti-P2Y2, anti-P2Y4 (both from Calbiochem); or rabbit anti-P2Y6 (Novus Biologicals, Littleton, Colo.).
PC 12 cells were treated as described above, except they were grown on 12 mm glass cover slips (A Daigger & Co., Vernon Hills, Ill.) coated with collagen. Proteins were visualized using immunofluorescence. Briefly, the cells were fixed with 4% paraformaldehyde, permeabilized with 0.25% Triton X-100, blocked in 10% normal goat serum, and incubated overnight in the appropriate antibodies (mouse anti-NF-70, and either rabbit anti-P2Y2, rabbit anti-P2Y4 or rabbit anti-P2Y6). For P2Y2 and P2Y4 visualization, control cultures were incubated with primary antibody plus a control antigen in order to ensure that the immuno-staining would be specific. Control antigen was not available for the P2Y6 receptor. Cells were then incubated in fluorochrome-conjugated secondary antibodies for 1 hour (goat anti-rabbit ALEXA 488 and goat anti-mouse ALEXA 568; Molecular Probes, Eugene, Oreg.) and mounted on glass slides with mounting media with or without DAPI (Vector Laboratories, Burlingame, Calif.). Control antigens provided with the primary antibodies were used to ensure that immuno-staining was specific. Digital images were obtained on a Zeiss (Oberkochen, Germany) Axioplan microscope with OpenLab software, using a Zeiss Plan-Neofluor 40× oil-immersion objective.

[8] = tested on: NF-70; assay: NF-70 levels in PC12 cells (Western blotting); format: cell-based
Method: as §2
(§3) Equal amounts of protein (40 μg protein/lane) were loaded for sodium dodecyl sulfate-polyacrylamide gel electrophoresis (4-15% SDS PAGE; Bio-Rad, Hercules, Calif.). Prior to gel electrophoresis, bromphenol blue solution (0.07%) was added to each sample. Proteins were separated, transferred onto polyvinylidene difluoride (PVDF) membranes (Immobilon-P, Millipore), and blocked with 5% bovine serum albumin (Tris-buffered saline/0.15% Tween 20) for 1 h. After 3 10 min rinses in Tris-buffered saline (TBST), blots were incubated in TBST with various antibodies against the proteins of interest, including NF-70, NF-M (1: 2000, 1: 5000, respectively; Calbiochem, La Jolla, Calif.) at 4° C. overnight on an orbital shaker. […] Films were digitized using a Supervista S-12 scanner with a transparency adapter (UMAX Technologies, Freemont, Calif.). Analysis was performed using the public domain NIH Image program (NIH V.1.61).

[9] = tested on: NF-M; assay: NF-M levels in PC12 cells (Western blotting); format: cell-based
Method: as §2, §3

Compound: Cc1nc(N=Nc2ccc(S(=O)(=O)O)cc2S(=O)(=O)O)c(COP(=O)(O)O)c(C=O)c1O [PPADS, pyridoxal-phosphate-6-azophenyl-2′,4′ disulfonic acid, reference compound]
- Inhibition of uptake of uridine into PC12 cells [1]: None of the P2Y receptor antagonists inhibited the uptake of uridine
- Block of stimulation of IP signaling by UTP ([2]; PPADS 100 μM): significantly (p<0.05) blocked

Compound: Nc1c(S(=O)(=O)O)cc(Nc2ccc(Nc3nc(Cl)nc(Nc4cccc(S(=O)(=O)O)c4)n3)c(S(=O)(=O)O)c2)c2c1C(=O)c1ccccc1C2=O [RB-2, reactive blue 2]
- Inhibition of uptake of uridine into PC12 cells [1]: None of the P2Y receptor antagonists inhibited the uptake of uridine

Compound: O=c1ccn([C@@H]2O[C@H](COP(=O)(O)OP(=O)(O)OP(=O)(O)O)[C@@H](O)[C@H]2O)c(=O)[nH]1 [UTP, uridine-5′-triphosphate]
- Intracellular CTP levels [3]: did not significantly affect
- Intracellular UTP levels [3]: did not significantly affect
- Neurite outgrowth ([4]; with NGF, 10 and 50 μM, 4 days, vs NGF only): significantly (p<0.01) enhanced
- Formation of IP [2]: significantly increased

Compound: Nc1ccn([C@@H]2O[C@H](CO)[C@@H](O)[C@H]2O)c(=O)n1 [cytidine, reference compound]
- Intracellular CTP levels [3]: did not significantly affect
- Intracellular UTP levels [3]: did not significantly affect
- Neurite outgrowth ([4]; NGF-exposed cells, cytidine): had no effect on neurite outgrowth

Compound: Cc1ccc(C(=O)Nc2ccc(S(=O)(=O)O)c3cc(S(=O)(=O)O)cc(S(=O)(=O)O)c23)cc1NC(=O)c1cccc(NC(=O)Nc2cccc(C(=O)Nc3cc(C(=O)Nc4ccc(S(=O)(=O)O)c5cc(S(=O)(=O)O)cc(S(=O)(=O)O)c45)ccc3C)c2)c1 [suramin]
- Inhibition of uptake of uridine into PC12 cells [1]: None of the P2Y receptor antagonists inhibited the uptake of uridine

Compound: O=c1ccn([C@@H]2O[C@H](CO)[C@@H](O)[C@H]2O)c(=O)[nH]1 [uridine]
- Intracellular CTP levels [3]: significantly (p<0.05) increased
- Intracellular UTP levels [3]: significantly (p<0.05) increased
- Conversion to cytidine in brain versus plasma [5]: more efficiently converted to cytidine than in plasma
- Intracellular CDP-choline levels [6]: statistically significant increase
- Expression of P2Y2, P2Y4 and P2Y6 receptors [7]: did not affect the expression
- NF-70 expression ([8]; NGF plus 50 μM, 4 days, vs NGF only, p<0.01): increased
- NF-70 level ([8]; absence of NGF): had no effect
- Average neurite length ([4]; NGF-differentiated cells): did not significantly affect
- Production of neurites ([4]; absence of NGF, 50 μM, 2 or 4 days): did not result in the production of neurites
- Number of neurite branch points per cell ([4]; with NGF, 50 μM, 4 days): significantly (p<0.01) increased
- Number of neurites per cell ([4]; with NGF, 2-day treatment or lower concentrations (10, 25 μM)): had no effect
- NF-M expression ([9]; NGF plus 50 μM, 4 days, vs NGF only, p<0.001): increased
- NF-M level ([9]; absence of NGF): had no effect
- Formation of IP [2]: significantly increased
